{
  "source": "patent US8673851B2",
  "about": "“Synapse-specific proteins in glomeruli” (priority 2005, dated 2014)",
  "molecules": {"B1": {"name": "BDNF: Brain Derived Neurotrophic Factor (Sigma) (protein, UniProt P23560 19-247, looked up)", "Neurotrophic factor BDNF …": "APMKEANIRGQGGLAYPGVRTHGTLESVNGPKAGSRGLTSLADTFEHVIEELLDEDQKVRPNEENNKDADLYTSRVMLSSQVPLEPPLLFLLEEYKNYLDAANMSMRVRRHSDPARRGELSVCDSISEWVTAADKKTAVDMSGGTVTVLEKVPVSKGQLKQYFYETKCNPMGYTKEGCRGIDKRHWNSQCRTTQSYVRALTMDSKKRIGWRFIRIDTSCVCTLTIKRGR"}},
  "key": {"[1]": {"test_system": "podocytes", "assay_type": "cell-based", "conditions": "for Calcium content (Fluo4) / Intra-vesicle pH (Lysosensor green) / Membrane potential (RH-414 accumulation and discharge): during stimulated exocytosis"}, "[2]": {"test_system": "podocytes", "assay": "[3H]-L-glutamate uptake", "assay_type": "cell-based, mouse", "method": "Podocytes were seeded at a density of 15,000 cells/well in 48-well plates, Two days later the culture medium was removed, the adherent washed two times with 0.5 mL/well of assay buffer (10 mM Tris-acetate, 128 mM NaCl, 10 mM D-glucose, 5 mM KCl, 1.5 mM NaH2PO4, 1 mM MgSO4, 1 mM CaCl2, pH 7.4) and then incubated for 15 min at 35° C. in assay buffer (0.3 mL/well) containing 100 nM [3H]-L-glutamate (Amersham, specific activity 47.0 Ci/mmol) with or without different concentrations of cold L-glutamate (from 1 to 1000 μM). Non-specific uptake was determined in parallel samples incubated in a Na+-free buffer (NaCl replaced by cholineCl). […]\nIn preliminary experiments it was established that the uptake of [3H]-Lglutamate was linear at least up to 15 min (not shown). Cells were then added with 0.3 mL/well of SDS and, after 2 hours on shaking plate, the well content was counted in 4 mL of Ultima Gold MV (Packard Bioscience, Groningen, the Netherlands) in an LKB 1214 Rackbeta liquid scintillation counter with a counting efficiency of about 60%.\nKm and Vmax of L-glutamate uptake were determined by fitting the inhibition curve using the “homologous competitive binding curve” equation built into GrapPad Prism version 4.00 for Windows (GraphPad Software, San Diego Calif. USA). […]"}, "[3]": {"test_system": "cultured mouse podocytes", "assay": "α-latrotoxin-stimulated glutamate release (enzymatic GDH/NADH assay)", "assay_type": "cell-based", "method": "α-Latrotoxin stimulated glutamate release was detected by an enzymatic assay based on the following reaction that occurs in presence of glutamate dehydrogenase (GDH): Glutamate−+NAD++H20 ketoglutarate2−+NADH+[…]H+.\nBriefly, to this purpose, the same numbers of podocytes obtained from normal mouse glomeruli were plated and grown to semiconfluence. Before measurements, cells were washed and re-suspended for 1 hour at 37° C. in DME incubation buffer (NaCl 109.5 mM, KCl 5.3 mM, glucose 5.5 mM with MgCl2 1 mM, Hepes 20 mM). The medium was further supplemented with GDH (Sigma 60 U/ml) and NAD+ (Sigma 1 mM), and incubated for 5 min. Then, α-latrotoxin was added at subnanomolar (0.5 nM) or nanomolar (2.5 nM) concentration and spectrophotometric increase of optical density (O.D.) due to increase of NADH was monitored at 340 nm. 200 nM Bafilomycin A1 (Sigma), a V-ATPase inhibitor that dissipates the electrochemical proton gradient necessary for glutamate uptake and storage into vescicles43, was added for 30 min at 37° C. to control cell plates before α-latrotoxin stimulation."}, "[4]": {"test_system": "primary mouse podocytes", "assay": "Phalloidin staining of the actin cytoskeleton", "assay_type": "cell-based", "conditions": "24 h, 50 mM norketamine hydrochloride", "method": "A Phalloidin staining of primary mouse podocytes after 24 h medium incubation. The actin cytoskeleton is intact. Rhodamine-phalloidin, 100×)\nB Phalloidin staining of primary mouse podocytes after 24 h 50 mM norketamine hydrochloride incubation. […] (Rhodamine-phalloidin, 100×)\nBy immunohistochemistry, we have observed a variation of positivity, either increased or decreased, for other synaptic proteins, such as synapsin 1 (antibody from Abeam), and the ionotropic glutamate receptor NMDA-1 in a variety of human glomerulonephritis (FIG. 12)."}, "[5]": {"test_system": "cultured podocytes", "assay": "Rab3A and glutamate staining of cultured podocytes before and after α-latrotoxin stimulus", "assay_type": "cell-based, mouse", "conditions": "after nanomolar α-latrotoxin treatment", "description": "Panel b)-e): Rab3A (b, d) and glutamate (c, e) staining of cultured podocytes before (b, c) and after (d, e) nanomolar α-latrotoxin stimulus. Disappearance of most labeling from the processes of podocytes is evident after stimulation (indirect immunofluorescence, 450×)."}, "[6]": {"test_system": "cell membranes", "conditions": "higher concentrations (>10 nM); cited from earlier work"}, "[7]": {"test_system": "primary podocytes", "assay": "Synaptic vesicle recycling with styryl dye FM1-43", "assay_type": "cell-based", "description": "The recycling of synaptic vesicles in nerve terminals is a complex multistep process, whose investigation has been made feasible by the use of styryl dyes. These molecules, that reversibly insert into the surface of lipid membranes, have no fluorescent properties in aqueous solution, but become intensely fluorescent upon membrane binding, allowing a labelling of recycling synaptic vesicles that is easily detectable by fluorescence microscopy."}, "[8]": {"test_system": "primary podocyte", "assay": "BDNF incubation, process formation (bright-field)", "assay_type": "cell-based", "conditions": "250 ng/ml, 20 hour incubation", "method": "FIG. 18 • A) Bright-field image (200×) showing the in vivo appearance of a primary podocyte before BDNF treatment. • B) The same field is taken after 20 h of BDNF incubation. The cell has produced a number of processes starting from its body.\nWe have also observed that podocytes are sensitive to 250 ng/ml BDNF (Brain Derived Neurotrophic Factor) (Sigma): after 20 hour incubation with BDNF, in fact, the number of processes extending from the podocyte cell body are increased (FIG. 18)."}},
  "note": "Structures can show the parent of a compound that is named as a salt.",
  "data": [
    {"molecule": "[Cl-].[K+]", "note": "[KCl]", "values": [
      {"measurement": "Induction of stimulated exocytosis", "setting": "[1]; 60 mM", "value": "can be induced"},
      {"measurement": "Calcium content (Fluo4)", "setting": "[1]", "value": "rapid variation in calcium content"},
      {"measurement": "Intra-vesicle pH (Lysosensor green)", "setting": "[1]", "value": "variation of intra-vesicle pH"},
      {"measurement": "Membrane potential (RH-414 accumulation and discharge)", "setting": "[1]", "value": "rapid variation of the membrane potential"}
    ]},
    {"molecule": "N[C@@H](CCC(=O)O)C(=O)O", "note": "[L-glutamate]", "values": [
      {"measurement": "Km", "setting": "[2]; Na+-dependent uptake, 100 nM [3H]-L-glutamate, 15 min at 35° C.", "value": 83, "unit": "µM"},
      {"measurement": "Vmax of L-glutamate uptake", "setting": "[2]; estimated, 15,000 cells/well seeded", "value": "about 2 pmol/min/well"}
    ]},
    {"molecule": "CO/C1=C\\C(C)=C\\[C@@H](C)[C@@H](O)[C@@H](C)C/C(C)=C/C=C/[C@H](OC)[C@@H]([C@@H](C)[C@@H](O)[C@H](C)[C@@]2(O)C[C@@H](O)[C@H](C)[C@@H](C(C)C)O2)OC1=O", "note": "[bafilomycin, Bafilomycin A1]", "values": [
      {"measurement": "Glutamate release after α-latrotoxin", "setting": "[3]; bafilomycin added 30 min before latrotoxin (0.5 nM or 2.5 nM α-latrotoxin), 200 nM Bafilomycin A1", "value": "Absence of glutamate release"}
    ]},
    {"molecule": "NC1(c2ccccc2Cl)CCCCC1=O", "note": "(centres unmarked) [norketamine hydrochloride]", "values": [
      {"measurement": "Actin cytoskeleton (rhodamine-phalloidin)", "setting": "[4]", "value": "profound alteration of the actin cytoskeleton"}
    ]},
    {"molecule": "tetanus toxin", "values": [
      {"measurement": "Block of exocytotic events", "setting": "[1]", "value": "can be blocked"}
    ]},
    {"molecule": "α-latrotoxin", "values": [
      {"measurement": "Glutamate secretion (generation of NADH, optical density at 340 nm)", "setting": "[3]; 0.5 nM α-latrotoxin", "value": "continuous exocytosis"},
      {"measurement": "Glutamate secretion (generation of NADH, optical density at 340 nm)", "setting": "[3]; 2.5 nM α-latrotoxin", "value": "burst of neurotransmitter release, followed by steady state"},
      {"measurement": "Glutamate labeling of cell processes by immunohistochemistry", "setting": "[5]", "value": "disappearance of most glutamate from cell processes"},
      {"measurement": "Rab3A distribution by immunohistochemistry", "setting": "[5]", "value": "redistribution of Rab3A"},
      {"measurement": "Damage to cell membranes", "setting": "[6]", "value": "highly damaging for cell membranes"},
      {"measurement": "Calcium content (Fluo4)", "setting": "[1]", "value": "rapid variation in calcium content"},
      {"measurement": "Intra-vesicle pH (Lysosensor green)", "setting": "[1]", "value": "variation of intra-vesicle pH"},
      {"measurement": "Membrane potential (RH-414 accumulation and discharge)", "setting": "[1]", "value": "rapid variation of the membrane potential"},
      {"measurement": "FM1-43 dye uptake", "setting": "[7]; a few seconds after a first α-latrotoxin stimulus", "value": "accumulate the styryl dye FM1-43"},
      {"measurement": "FM1-43 dye release", "setting": "[7]; after a second α-latrotoxin stimulation", "value": "almost completely discharge the dye"}
    ]},
    {"molecule": "B1", "values": [
      {"measurement": "Number of processes extending from the podocyte cell body", "setting": "[8]", "value": "increased"}
    ]}
  ]
}
